{"source": "paper PMC5925572", "about": "“Protoplast-Esculin Assay as a New Method to Assay Plant Sucrose Transporters: Characterization of AtSUC6 and AtSUC7 Sucrose Uptake Activity in Arabidopsis Col-0 Ecotype” (Frontiers in Plant Science, 2018)", "molecules": {"B1": {"name": "AtSUC6Col-0 (Arabidopsis thaliana) (protein)", "chain": "MSDLQANKDAAAVNRQSSSSSADLNGPSPMRKMISVASIAAGIQFGWALQLSLLTPYVQLLGVPHKWSSFIWLCGPVSGLLVQPSVGYFSDRCKSRFGRRRPFIAMGALLVAVAVVLIGYAADFGHSMGDKVDEPVKMRAVVIFALGFWILDVANNTLQGPCRAFLGDLAAGDAKKTRTANAFFSFFMAVGNVLGYAAGSYTNLYKIFPFTMTKACDIYCANLKSCFFLSITLLLVVTIIALWYVEDKQWSPKADSDNEKTPFFGEIFGAFKVMKRPMWMLLIVTALNWIAWFPFLLYDTDWMGREVYGGDSKGDDKMKKLYNQGIHVGGLGLMLNSIVLGFMSLGIEGISRKMGGAKRLWGAVNIILAVCLAMTVLVTKKAEEHRRIAGPMALPTDGIRAGALTLFALLGIPLAITFSIPFALASIISSSSGAGQGLSLGVLNMTIVIPQMVVSFGVGPIDALFGGGNLPGFVVGAIAAAISSVVAFSVLP", "notes": "full-length CDS from silique cDNA; untagged in yeast CSY4000 (strain TRY1039); GFP fusion in protoplasts"}}, "key": {"AtSUC2": {"target": "T1, AtSUC2 (Arabidopsis thaliana, UniProt Q39231)", "T1 construct": "gene SUC2; full-length CDS, C-terminal GFP fusion (AtSUC2-GFP), in Arabidopsis mesophyll protoplasts; Col-0 named for the mutant construct", "T1 sequence (Q39231 1-512)": "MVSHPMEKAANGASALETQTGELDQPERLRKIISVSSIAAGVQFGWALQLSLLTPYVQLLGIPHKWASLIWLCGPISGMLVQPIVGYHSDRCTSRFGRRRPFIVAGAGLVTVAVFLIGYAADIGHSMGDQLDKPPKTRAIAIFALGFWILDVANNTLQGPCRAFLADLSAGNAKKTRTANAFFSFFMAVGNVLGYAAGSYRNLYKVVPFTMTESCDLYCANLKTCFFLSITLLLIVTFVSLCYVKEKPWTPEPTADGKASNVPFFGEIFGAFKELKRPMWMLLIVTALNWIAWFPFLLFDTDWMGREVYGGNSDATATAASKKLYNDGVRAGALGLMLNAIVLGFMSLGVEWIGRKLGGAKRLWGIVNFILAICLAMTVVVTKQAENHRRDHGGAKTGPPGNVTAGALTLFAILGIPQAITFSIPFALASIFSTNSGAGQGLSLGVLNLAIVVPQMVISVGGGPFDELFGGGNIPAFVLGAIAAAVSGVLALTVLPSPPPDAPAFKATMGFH", "assay": "esculin fluorescence uptake into GFP-fusion expressing mesophyll protoplasts", "assay_type": "cell-based", "conditions": "1 mM esculin, W5 buffer pH 5.6"}, "AtSUC1": {"target": "T2, AtSUC1 (Arabidopsis thaliana, UniProt Q39232)", "T2 construct": "gene SUC1; full-length CDS, GFP fusion, in Arabidopsis mesophyll protoplasts", "T2 sequence (Q39232 1-513)": "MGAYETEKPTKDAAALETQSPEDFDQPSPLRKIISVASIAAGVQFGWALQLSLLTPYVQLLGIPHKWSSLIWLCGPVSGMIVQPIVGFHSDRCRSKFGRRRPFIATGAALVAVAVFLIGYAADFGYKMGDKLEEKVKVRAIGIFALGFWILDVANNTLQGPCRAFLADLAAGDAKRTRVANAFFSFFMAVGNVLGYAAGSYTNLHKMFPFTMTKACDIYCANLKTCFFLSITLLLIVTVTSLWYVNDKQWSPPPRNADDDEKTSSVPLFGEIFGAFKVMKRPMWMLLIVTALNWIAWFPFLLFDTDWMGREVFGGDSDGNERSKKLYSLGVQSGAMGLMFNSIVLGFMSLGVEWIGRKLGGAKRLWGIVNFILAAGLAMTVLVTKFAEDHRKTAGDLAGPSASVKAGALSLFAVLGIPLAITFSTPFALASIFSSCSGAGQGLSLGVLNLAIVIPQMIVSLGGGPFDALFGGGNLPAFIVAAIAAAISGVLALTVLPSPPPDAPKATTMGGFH", "assay": "esculin fluorescence uptake into GFP-fusion expressing mesophyll protoplasts", "assay_type": "cell-based", "conditions": "1 mM esculin, W5 buffer pH 5.6"}, "AtSUC6Col-0 [1]": {"target": "T3, AtSUC6Col-0 (Arabidopsis thaliana, UniProt Q6A329)", "T3 construct": "gene SUC6; full-length CDS from silique cDNA; untagged in yeast CSY4000 (strain TRY1039); GFP fusion in protoplasts", "T3 sequence (Q6A329 1-492)": "B1 chain", "assay": "competition of […]-sucrose uptake in yeast; esculin uptake into protoplasts", "assay_type": "cell-based", "conditions": "pH 5.5; competition with 100 μM 14C-sucrose; value in figure only"}, "AtSUC9": {"target": "T4, AtSUC9 (Arabidopsis thaliana, UniProt Q9FG00)", "T4 construct": "gene SUC9; full-length CDS, GFP-AtSUC9 fusion, in Arabidopsis mesophyll protoplasts", "T4 sequence (Q9FG00 1-491)": "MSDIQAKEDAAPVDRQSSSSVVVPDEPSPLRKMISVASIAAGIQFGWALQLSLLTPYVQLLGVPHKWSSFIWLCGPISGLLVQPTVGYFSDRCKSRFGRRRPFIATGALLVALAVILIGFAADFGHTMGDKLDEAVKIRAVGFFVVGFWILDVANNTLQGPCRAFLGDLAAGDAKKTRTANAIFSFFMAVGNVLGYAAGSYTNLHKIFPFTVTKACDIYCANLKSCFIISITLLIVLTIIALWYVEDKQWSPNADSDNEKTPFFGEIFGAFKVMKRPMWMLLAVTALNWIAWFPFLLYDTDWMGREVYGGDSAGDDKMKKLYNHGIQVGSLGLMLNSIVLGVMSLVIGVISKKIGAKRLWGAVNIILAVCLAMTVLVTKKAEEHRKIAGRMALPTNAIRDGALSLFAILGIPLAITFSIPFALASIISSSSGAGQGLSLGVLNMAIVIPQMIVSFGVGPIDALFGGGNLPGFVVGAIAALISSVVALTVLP", "assay": "esculin fluorescence uptake into GFP-fusion expressing mesophyll protoplasts", "assay_type": "cell-based", "conditions": "1 mM esculin, W5 buffer pH 5.6"}, "AtSUC8": {"target": "T5, AtSUC8 (Arabidopsis thaliana, UniProt Q9ZVK6)", "T5 construct": "gene SUC8; full-length CDS, GFP fusion, in Arabidopsis mesophyll protoplasts", "T5 sequence (Q9ZVK6 1-492)": "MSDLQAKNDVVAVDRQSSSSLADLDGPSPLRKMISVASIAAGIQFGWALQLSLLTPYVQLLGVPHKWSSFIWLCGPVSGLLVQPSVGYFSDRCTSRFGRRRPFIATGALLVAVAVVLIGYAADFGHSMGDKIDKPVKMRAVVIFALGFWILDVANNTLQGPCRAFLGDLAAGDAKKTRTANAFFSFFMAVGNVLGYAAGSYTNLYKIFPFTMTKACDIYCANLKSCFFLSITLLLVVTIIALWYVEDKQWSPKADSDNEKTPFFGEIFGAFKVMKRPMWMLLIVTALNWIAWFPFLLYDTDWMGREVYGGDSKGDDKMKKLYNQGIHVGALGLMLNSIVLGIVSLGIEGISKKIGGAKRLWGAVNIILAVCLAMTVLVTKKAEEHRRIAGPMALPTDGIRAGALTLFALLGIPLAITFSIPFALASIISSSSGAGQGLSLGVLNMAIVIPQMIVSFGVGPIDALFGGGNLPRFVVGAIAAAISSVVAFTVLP", "assay": "esculin fluorescence uptake into GFP-fusion expressing mesophyll protoplasts", "assay_type": "cell-based", "conditions": "1 mM esculin, W5 buffer pH 5.6"}, "AtSUC3": {"target": "T6, AtSUC3 (Arabidopsis thaliana, UniProt O80605)", "T6 construct": "gene SUC3; full-length CDS, GFP-AtSUC3 fusion, in Arabidopsis mesophyll protoplasts", "T6 sequence (O80605 1-594)": "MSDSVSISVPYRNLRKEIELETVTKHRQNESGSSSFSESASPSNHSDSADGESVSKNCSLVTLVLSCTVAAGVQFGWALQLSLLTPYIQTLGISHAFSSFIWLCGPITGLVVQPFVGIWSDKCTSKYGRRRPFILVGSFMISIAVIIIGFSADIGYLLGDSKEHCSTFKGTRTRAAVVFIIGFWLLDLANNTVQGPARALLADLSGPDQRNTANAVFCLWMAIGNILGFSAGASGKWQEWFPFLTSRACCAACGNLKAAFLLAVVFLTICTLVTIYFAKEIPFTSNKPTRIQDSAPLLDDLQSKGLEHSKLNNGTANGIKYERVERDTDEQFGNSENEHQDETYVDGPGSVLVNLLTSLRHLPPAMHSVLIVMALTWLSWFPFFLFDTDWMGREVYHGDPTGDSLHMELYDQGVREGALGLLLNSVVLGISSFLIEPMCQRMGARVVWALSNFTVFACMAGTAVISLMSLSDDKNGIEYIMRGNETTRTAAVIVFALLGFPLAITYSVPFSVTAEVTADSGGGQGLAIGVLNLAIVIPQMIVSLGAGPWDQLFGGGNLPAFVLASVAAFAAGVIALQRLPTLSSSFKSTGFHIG", "assay": "esculin fluorescence uptake into GFP-fusion expressing mesophyll protoplasts", "assay_type": "cell-based", "conditions": "1 mM esculin, W5 buffer pH 5.6"}, "AtSUC5": {"target": "T7, AtSUC5 (Arabidopsis thaliana, UniProt Q9C8X2)", "T7 construct": "gene SUC5; full-length CDS, GFP fusion, in Arabidopsis mesophyll protoplasts; Col-0 named for the mutant construct", "T7 sequence (Q9C8X2 1-512)": "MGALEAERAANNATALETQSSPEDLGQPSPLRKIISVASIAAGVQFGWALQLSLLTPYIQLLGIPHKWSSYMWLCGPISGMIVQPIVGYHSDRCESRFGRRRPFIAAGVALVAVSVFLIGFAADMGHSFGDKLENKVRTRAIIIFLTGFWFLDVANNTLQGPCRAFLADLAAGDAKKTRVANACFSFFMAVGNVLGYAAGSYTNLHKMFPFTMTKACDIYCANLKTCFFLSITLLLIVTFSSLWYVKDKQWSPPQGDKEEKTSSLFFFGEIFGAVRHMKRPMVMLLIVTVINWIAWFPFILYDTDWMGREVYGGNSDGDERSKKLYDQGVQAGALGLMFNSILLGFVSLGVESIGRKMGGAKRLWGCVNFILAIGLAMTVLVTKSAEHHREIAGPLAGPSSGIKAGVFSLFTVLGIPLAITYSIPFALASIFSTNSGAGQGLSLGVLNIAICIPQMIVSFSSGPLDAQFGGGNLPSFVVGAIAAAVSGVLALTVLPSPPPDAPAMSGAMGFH", "assay": "esculin fluorescence uptake into GFP-fusion expressing mesophyll protoplasts", "assay_type": "cell-based", "conditions": "1 mM esculin, W5 buffer pH 5.6"}, "AtSUC6Col-0 [2]": {"target": "T3, AtSUC6Col-0", "assay": "competition of […]-sucrose uptake in yeast", "assay_type": "cell-based", "conditions": "100 μM 14C-sucrose, maltose in 10-fold excess (1 mM), pH 5.5"}, "AtSUC6Col-0 [3]": {"target": "T3, AtSUC6Col-0", "assay": "competition of […]-sucrose uptake in yeast", "assay_type": "cell-based", "conditions": "10-fold excess, pH 5.5, weak, value in figure only"}, "[4]": {"substrate": "OC[C@H]1O[C@@](CO)(O[C@H]2O[C@H](CO)[C@@H](O)[C@H](O)[C@H]2O)[C@@H](O)[C@@H]1O", "assay": "cells, lysate or membranes", "assay_type": "cell-based, Arabidopsis thaliana", "conditions": "external pH 5.5, H+ symport, labelled compound"}}, "data": [{"molecule": "O=c1ccc2cc(O[C@@H]3O[C@H](CO)[C@@H](O)[C@H](O)[C@H]3O)c(O)cc2o1", "note": "[esculin]", "values": [{"measurement": "esculin fluorescence uptake into GFP-fusion expressing mesophyll protoplasts", "setting": "AtSUC2", "result": "all protoplasts labeled by AtSUC2-GFP had taken up esculin"}, {"measurement": "esculin fluorescence uptake into GFP-fusion expressing mesophyll protoplasts", "setting": "AtSUC1", "result": "AtSUC1, AtSUC5, AtSUC6Col-0, AtSUC8, or AtSUC9 enabled the cells to accumulate esculin"}, {"measurement": "competition of 14C-sucrose uptake in yeast; esculin uptake into protoplasts", "setting": "AtSUC6Col-0 [1]", "result": "addition of esculin greatly interfered with sucrose uptake (Figure 4E)"}, {"measurement": "esculin fluorescence uptake into GFP-fusion expressing mesophyll protoplasts", "setting": "AtSUC9", "result": "AtSUC1, AtSUC5, AtSUC6Col-0, AtSUC8, or AtSUC9 enabled the cells to accumulate esculin"}, {"measurement": "esculin fluorescence uptake into GFP-fusion expressing mesophyll protoplasts", "setting": "AtSUC8", "result": "AtSUC1, AtSUC5, AtSUC6Col-0, AtSUC8, or AtSUC9 enabled the cells to accumulate esculin"}, {"measurement": "esculin fluorescence uptake into GFP-fusion expressing mesophyll protoplasts", "setting": "AtSUC3", "result": "Protoplasts with GFP-AtSUC3 were also able to accumulate esculin"}, {"measurement": "esculin fluorescence uptake into GFP-fusion expressing mesophyll protoplasts", "setting": "AtSUC5", "result": "AtSUC1, AtSUC5, AtSUC6Col-0, AtSUC8, or AtSUC9 enabled the cells to accumulate esculin"}]}, {"molecule": "OC[C@H]1O[C@H](O[C@H]2[C@H](O)[C@@H](O)C(O)O[C@@H]2CO)[C@H](O)[C@@H](O)[C@@H]1O", "note": "(stereo partly shown) [maltose]", "values": [{"measurement": "% residual 14C-sucrose uptake in 10-fold excess", "setting": "AtSUC6Col-0 [2]", "result": 32, "unit": "%"}]}, {"molecule": "OC[C@H]1O[C@H](OC[C@H]2O[C@H](O[C@]3(CO)O[C@H](CO)[C@@H](O)[C@@H]3O)[C@H](O)[C@@H](O)[C@@H]2O)[C@H](O)[C@@H](O)[C@H]1O", "note": "[raffinose]", "values": [{"measurement": "competition of 14C-sucrose uptake in yeast", "setting": "AtSUC6Col-0 [3]", "result": "The trisaccharide raffinose slightly interfered with sucrose uptake"}]}, {"molecule": "B1", "values": [{"measurement": "Km", "setting": "[4]", "result": "81.2 ± 2.7", "unit": "µM"}]}]}
